Results on six molecules are retold here after patent publication US20230277553A1, “THERAPEUTIC COMPOSITION OF CURE-PRO COMPOUNDS FOR TARGETED DEGRADATION OF BET DOMAIN PROTEINS, AND METHODS OF MAKING AND USAGE” (CORNELL UNIVERSITY, priority 2020, published 2023).

Assay [1] deals with T1, BRD4 (Homo sapiens, UniProt O60885). In words: CURE-PRO-mediated BRD4 degradation, Western blot, HeLa cells. The class given is cell-based. On the set-up: endogenous in cells; host or cells: HeLa. The settings on record: 24 h; for BRD4 degradation, co-treatment with CRBN ligand 8047: 1:1 with 8047, 10 μM each; for BRD4 degradation, co-treatment with CRBN ligand 8066: 1:1 with 8066, 10 μM each (BRD-E10: 10 and 100 μM). The procedure: All cell lines were purchased from ATCC or DSMZ and grown at 37° C. with 5% CO2. Human HeLa cells were cultured in complete growth medium (Dulbecco's modified Eagle's medium (DMEM) supplemented with 10% FBS); MCF7 cells were cultured in complete growth medium (Dulbecco's modified Eagle's medium (DMEM) supplemented with 10% FBS and 0.01 mg/ml human recombinant insulin (Sigma Aldrich); Namalwa and MOLM-13 cells were cultured in complete growth medium (RPMI 1640 medium supplemented with 10% FBS); MV-4-11 were cultured in complete growth medium (Iscove's Modified Dulbecco's medium, supplemented with 10% FBS); HCT116 cells were cultured in complete growth medium (McCoy's 5a Medium supplemented with 10% FBS). For cellular degradation of BRD4 studies, cells were seeded in a 12-well plate at 70-80% confluency, allowed to attach overnight, and incubated with the indicated compounds for the indicated time. When indicated, a 15-minute pretreatment with 10 μM pomalidomide, 10 μM VHL298, 10 μM Nutlin3a, 1 μM MG-132 or 1 μM Carfilzomib was performed before the addition of CURE-PROs. For washout studies, after CURE-PRO treatment, media was aspirated and incubated with complete medium for the indicated time before lysis.
Anti-BRD4 (13440, 1:1,000 dilution for Western Blot and 1:25 dilution for ProteinSimple); Anti-BRD2 (5848 1:1,000 dilution for Western Blot and 1:25 dilution for ProteinSimple); β-Actin (3700, 1:2,000 dilution for Western Blot), β-Actin (4970, 1:50 dilution for ProteinSimple) anti-mouse IgG-HRP, and anti-rabbit IgG-HRP antibodies were purchased Cell Signaling Technology. Anti-GAPDH (600-401-A33, 1:100 dilution for ProteinSimple) was purchased from Rockland Immunochemicals, Inc. Anti-BRD3 (sc-81202, 1:200 dilution for Western Blot) was purchased from Santa Cruz Biotechnology.
HeLa, MCF7, or HCT116 cells (2.5-3×10^6) were treated for 24 hours with the indicated compounds solubilized in DMSO. The cells were washed in ice-cold PBS and were then lysed in RIPA lysis buffer (150 mM NaCl, 5 mM EDTA, 1% NP-40, 0.5% sodium deoxycholate, 0.1% SDS, 50 mM Tris, pH 8.0.) with Roche protease inhibitor complete cocktail and phosphatase inhibitors (10 mM sodium fluoride, 10 mM sodium pyrophosphate, 1 mM sodium orthovanadate and 20 mM β-glycerophosphate). The total protein concentrations were determined by Bradford Protein Assay and 10-20 μg of protein was loaded onto 4-15% Tris-Glycine gradient gels (Biorad). After standard gel electrophoresis, the separated proteins were transferred to PVDF membrane by wet transfer. The immunoblots were then blocked for 1 hour in 5% skim milk in TBST or 5% BSA in TBST, according to manufacturer's instructions, before an overnight incubation at 4° C. with indicated antibodies and membranes. Membranes were then incubated with the appropriate horseradish peroxidase-conjugated secondary antibodies (1:5,000 dilution) for 1 h at room temperature and the bands were visualized using the Clarity Max Western ECL Substrate (Biorad) and the ChemiDoc Imaging System (Biorad). Signal was detected with ECL Western Blotting Substrate (Pierce) and X-ray film processed with a Konica SRX-101 X-ray film processor or captured by Bio-Rad's Chemidoc Imaging system.
HeLa cells (2.5×106) were treated for 24 hours with the sample compounds solubilized in DMSO. Compounds were added at 1-10 μM each. Standardized protein samples were electrophoresed and imaged as described in the immunoblotting description above. FIGS. 6-18 depicts the CURE-PRO-mediated BRD4 degradation for BRD monomers (JQ1 derivatives comprising of catechol linkers), and CRBN ligands, 8048 and 8049 (pomalidomide derivatives comprising boronic acid linkers) combined in a 1:1 ratio.
HeLa cells (2.5×106) were treated for 24 hours with the compounds solubilized in DMSO. The compounds were added at 10 μM each. Standardized protein samples were electrophoresed and imaged as described in the immunoblotting section above. […]
In general terms: A western blot detects proteins with antibodies after separation by electrophoresis.

Assay [2] addresses T1, BRD4. In words: Summary of BRD4 degradation by CURE-PRO pairs, estimated from Western Blot or WES (Proteinsimple). In kind it is cell-based. Further details: endogenous in cells. The settings on record: for Degradation of BRD4 in combination with CRBN ligand [drawing 371] / Degradation of BRD4 in combination with CRBN ligand [drawing 372] / Degradation of BRD4 in combination with CRBN ligand [drawing 370]: Table 1; for Degradation of BRD4 in combination with CRBN ligand [drawing 371]: second drawing (8047); for Degradation of BRD4 in combination with CRBN ligand [drawing 372]: third drawing (8066); for Degradation of BRD4 in combination with CRBN ligand [drawing 370]: aromatic 1,2-diol- or hindered cis-1,2-diol-containing CRBN ligand, first drawing (8046). The source says:
A black check mark indicates efficacy of 30% to 70% or higher protein degradation.

Entries after “also recorded” stand apart in the source; their conditions may differ.

Turning to `COc1ccc2c(c1)C(c1ccc(Cl)cc1)=N[C@@H](CC(=O)NCCCNC(=O)c1cccc(B(O)O)c1)c1nnc(C)n1-2` [BRD-E4], the “BRD4 degradation, co-treatment with CRBN ligand 8046” value in assay [1] (1:1 with 8046, 10 μM each, Western blot) was “causes degradation of BRD4; also recorded: Degradation is noted”. In assay [1] (Western blot), the “BRD4 degradation, co-treatment with CRBN ligand 8047” value is reported as “causes degradation of BRD4; also recorded: Degradation is noted” and the “BRD4 degradation, co-treatment with CRBN ligand 8066” value was “causes degradation of BRD4; also recorded: Degradation is noted”. Further, in assay [2], the “Degradation of BRD4 in combination with CRBN ligand [drawing 371]” value (from here on “Degradation of BRD4 … [drawing 371]”) is “✓ (A black check mark indicates efficacy of 30% to 70% or higher protein degradation)”, the “Degradation of BRD4 in combination with CRBN ligand [drawing 372]” value (shortened to “Degradation of BRD4 … [drawing 372]”) is recorded as “✓ (A black check mark indicates efficacy of 30% to 70% or higher protein degradation)” and the “Degradation of BRD4 in combination with CRBN ligand [drawing 370]” value is given as “✓ (A black check mark indicates efficacy of 30% to 70% or higher protein degradation)”.
For `COc1ccc2c(c1)C(c1ccc(Cl)cc1)=N[C@@H](CC(=O)NCCCCNC(=O)c1ccc(B(O)O)cc1)c1nnc(C)n1-2` [BRD-E5], in assay [1] (Western blot), the “BRD4 degradation, co-treatment with CRBN ligand 8047” value is listed as “causes degradation of BRD4; also recorded: Degradation is noted” and the “BRD4 degradation, co-treatment with CRBN ligand 8066” value is on record as “causes degradation of BRD4; also recorded: Degradation is noted”. Besides, in assay [2], the “Degradation of BRD4 … [drawing 371]” value is given as “✓ (A black check mark indicates efficacy of 30% to 70% or higher protein degradation)” and the “Degradation of BRD4 … [drawing 372]” value is recorded as “✓ (A black check mark indicates efficacy of 30% to 70% or higher protein degradation)”.
Take `COc1ccc2c(c1)C(c1ccc(Cl)cc1)=N[C@@H](CC(=O)NCc1cccc(B(O)O)c1)c1nnc(C)n1-2` [BRD-E10]: the “Concentration at which BRD4 degradation is observed, co-dosed with 8046” value in assay [1] (1:1 with 8046) turned out to be 100 µM. Besides, in assay [1] (1:1 with 8047, tested 10 and 100 μM), the “Concentration at which complete BRD4 degradation is demonstrated, with 8047” value amounted to 10 µM. Moreover, in assay [2], the “Degradation of BRD4 … [drawing 371]” value is recorded as “✓ (A black check mark indicates efficacy of 30% to 70% or higher protein degradation)” and the “Degradation of BRD4 in combination with CRBN ligand [drawing 370]” value was “✓ (A black check mark indicates efficacy of 30% to 70% or higher protein degradation)”. Also, the “Degradation of BRD4 in combination with VHL ligand [drawing 396]” value in assay [2] (Table 3, aromatic 1,2-diol-containing VHL ligand, first drawing (by text: 8304)) is listed as “✓ (A black check mark indicates efficacy of 30% to 70% or higher protein degradation)”.
As for `COc1ccc2c(c1)C(c1ccc(Cl)cc1)=N[C@@H](CC(=O)NCCNC(=O)Cc1ccc(B(O)O)cc1)c1nnc(C)n1-2` [BRD-E27, (4-(2-((2-(2-((4S)-6-(4-chlorophenyl)-8-methoxy-1-methyl-4H-benzo[f][1,2,4]triazolo[4,3-a][1,4]diazepin-4-yl)acetamido)ethyl)amino)-2-oxoethyl)phenyl)boronic acid], the “BRD4 degradation, co-treatment with CRBN ligand 8047” value in assay [1] (Western blot) is reported as “causes degradation of BRD4”. Further, the “Degradation of BRD4 … [drawing 371]” value in assay [2] is on record as “✓ (A black check mark indicates efficacy of 30% to 70% or higher protein degradation)”.
As to `COc1ccc2c(c1)C(c1ccc(Cl)cc1)=N[C@@H](CC(=O)NCCNC(=O)/C=C/c1cccc(B(O)O)c1)c1nnc(C)n1-2` [BRD-E30, (3-((E)-3-((2-(2-((4S)-6-(4-chlorophenyl)-8-methoxy-1-methyl-4H-benzo[f][1,2,4]triazolo[4,3-a][1,4]diazepin-4-yl)acetamido)ethyl)amino)-3-oxoprop-1-en-1-yl)phenyl)boronic acid], in assay [1] (BRD monomer alone, Western blot), the “BRD4 degradation, BRD ligand alone” value is “no change in expression”. Moreover, in assay [2], the “Degradation of BRD4 … [drawing 371]” value was “✓ (A black check mark indicates efficacy of 30% to 70% or higher protein degradation)” and the “Degradation of BRD4 … [drawing 372]” value is “✓ (A black check mark indicates efficacy of 30% to 70% or higher protein degradation)”.
`CCNC(=O)C[C@@H]1N=C(c2ccc(Cl)cc2)c2cc(OCCOCCOCCNC(=O)c3cccc(B(O)O)c3)ccc2-n2c(C)nnc21` [BRD-E42]: the “BRD4 degradation, co-treatment with CRBN ligand 8047” value in assay [1] (Western blot) is “causes degradation of BRD4”. Also, the “Degradation of BRD4 … [drawing 371]” value in assay [2] is reported as “✓ (A black check mark indicates efficacy of 30% to 70% or higher protein degradation)”.
